According to ChEMBL document CHEMBL1201862, “PubChem BioAssay data set” (2004):
Calls of active or inactive are those of the source.

Experiments:
[1] = fluconazole-exposed Candida albicans growth modulators – fluorescence, retest, confirmation (AID 2467); type: functional, cell-based
[2] = NIH-3T3 fibroblast cytotoxicity, dose response, cytotoxicity control, cell-based, fluorescence, Alamar Blue, secondary assay (AID 2327); type: functional;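 note: NIH-3T3 mouse fibroblasts cultured with fluconazole at 8 µg/mL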
[3] = test system: Streptococcus sp. 'group A'; experiment: Streptococcus pyogenes SK(-)GAS viability under kanamycin – luminescence, BacTiterGlo, confirmation, counter-screen for streptokinase expression inhibitor project, dose response (AID 1900); type: functional, organism-based
[4] = biological target: ATP-dependent molecular chaperone HSP82 (Candida albicans (strain WO-1) (Yeast), UniProt C4YTQ8); experiment: steroid-induced GRE reporter decrease in yeast – S. cerevisiae, luminescence, Hsp90 inhibitor project, dose response (AID 2400); type: functional, cell-based;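 note: beta-galactosidase luminescence from glucocorticoid response element reporter as proxy for Hsp90 function; inhibitor potency where signal loss means Hsp90 inhibition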
[5] = luciferase reporter signal suppression in cells – H4 neuroglioma cells, luminescence, dose response (AID 1990); type: functional, cell-based
INS1 = experiment: INS-1E survival protection against cytokine death – cell-based, luminescence, retest, dose response (AID 449756); type: functional; conditions: Rattus norvegicus;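 note: cell death triggered by IL-1 beta plus TNF-alpha plus IFN-gamma mixture; protective hits raise ATP signal compared with cytokine alone wells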
Exodeoxyribonuclease V = Exodeoxyribonuclease V (Escherichia coli (strain K12), UniProt P04993+P07648+P08394); experiment: RecBCD inhibition via phage-restricted bacterial growth – absorbance, V66 E. coli, mutant T4 phage, counter-screen for AddAB inhibitor project, dose response (AID 492957); type: functional, cell-based, Escherichia coli str. K-12 substr. MG1655
[6] = Luminescence Cell-Based Dose Response HTS to Identify Inhibitors of 5'UTR Stem-Loop Driven Prion Protein mRNA Translation in H4 Neuroglioblastoma Cells. [Related pubchem assays: 1827 (Project Summary), 1813 (Primary HTS)]; type: functional
[7] = biological target: T1, Sentrin-specific protease 6 (Homo sapiens, UniProt Q9GZR1); type: functional;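 note: Luminescence-based dose-response confirmatory assay of SENP6 inhibition, following up an ultra-high-throughput screen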
T1 sequence (Q9GZR1 whole entry): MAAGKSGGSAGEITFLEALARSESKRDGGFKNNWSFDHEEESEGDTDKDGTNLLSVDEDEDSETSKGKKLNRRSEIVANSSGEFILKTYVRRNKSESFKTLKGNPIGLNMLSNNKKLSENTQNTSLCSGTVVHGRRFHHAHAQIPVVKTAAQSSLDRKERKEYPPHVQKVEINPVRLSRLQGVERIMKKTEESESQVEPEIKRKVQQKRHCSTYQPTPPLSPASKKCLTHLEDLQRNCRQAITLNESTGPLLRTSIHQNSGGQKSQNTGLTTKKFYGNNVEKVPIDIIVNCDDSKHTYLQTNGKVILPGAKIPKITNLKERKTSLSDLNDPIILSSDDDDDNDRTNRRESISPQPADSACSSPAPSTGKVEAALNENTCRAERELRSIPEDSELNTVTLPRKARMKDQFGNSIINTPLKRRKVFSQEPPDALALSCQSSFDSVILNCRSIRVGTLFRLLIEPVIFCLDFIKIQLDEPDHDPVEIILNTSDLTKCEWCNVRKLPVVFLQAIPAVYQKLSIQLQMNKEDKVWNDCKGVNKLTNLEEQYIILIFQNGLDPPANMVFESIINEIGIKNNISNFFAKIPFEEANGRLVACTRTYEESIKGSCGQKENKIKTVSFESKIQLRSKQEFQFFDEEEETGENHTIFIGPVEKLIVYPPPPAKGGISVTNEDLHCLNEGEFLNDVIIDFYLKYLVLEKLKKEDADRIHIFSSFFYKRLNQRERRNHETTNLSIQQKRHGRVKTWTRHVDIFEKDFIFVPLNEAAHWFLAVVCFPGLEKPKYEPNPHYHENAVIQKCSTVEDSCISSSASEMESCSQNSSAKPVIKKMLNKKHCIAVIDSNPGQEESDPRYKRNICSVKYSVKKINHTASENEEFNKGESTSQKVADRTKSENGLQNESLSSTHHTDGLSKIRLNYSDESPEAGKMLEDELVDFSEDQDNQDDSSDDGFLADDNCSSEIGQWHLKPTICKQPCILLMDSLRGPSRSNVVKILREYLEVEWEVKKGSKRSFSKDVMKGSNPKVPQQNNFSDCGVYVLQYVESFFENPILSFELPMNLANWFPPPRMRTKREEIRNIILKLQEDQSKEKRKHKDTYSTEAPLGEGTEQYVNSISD

[8] = biological target: Glycogen synthase kinase-3 beta (Homo sapiens, UniProt P49841); type: functional;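 note: value comes from a broad kinome profiling panel, with GSK3B as the panel member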
[9] = biological target: Macrophage-stimulating protein receptor (Homo sapiens, UniProt Q04912); experiment: Navigating the Kinome. Panel member name: MST1R; type: functional
[10] = biological target: Platelet-derived growth factor receptor alpha (Homo sapiens, UniProt P16234); experiment: Navigating the Kinome. Panel member name: PDGFRA; type: functional
[11] = biological target: Insulin-like growth factor 1 receptor (Homo sapiens, UniProt P08069); experiment: Navigating the Kinome. Panel member name: IGF1R; type: functional
[12] = biological target: Proto-oncogene tyrosine-protein kinase receptor Ret (Homo sapiens, UniProt P07949); type: functional;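 note: measured within a kinome-wide profiling panel, RET as the panel member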
[13] = biological target: Cyclin-dependent kinase 7 (Homo sapiens, UniProt P50613); type: functional;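 note: value comes from a kinome-wide kinase profiling panel in which CDK7 is one member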
[14] = biological target: Tyrosine-protein kinase receptor TYRO3 (Homo sapiens, UniProt Q06418); type: functional;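 note: TYRO3 value obtained as one member of a kinome-wide profiling panel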
[15] = biological target: High affinity nerve growth factor receptor (Homo sapiens, UniProt P04629); type: functional;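 note: NTRK1 tested as one member of a kinome-wide profiling panel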
[16] = biological target: Ribosomal protein S6 kinase alpha-3 (Homo sapiens, UniProt P51812); type: functional;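 note: measured within a kinome-wide profiling panel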
[17] = biological target: Cyclin-dependent kinase 5 (Homo sapiens, UniProt Q00535); type: functional;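 note: CDK5 measured as one member of a kinase profiling panel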
[18] = biological target: Protein kinase C theta type (Homo sapiens, UniProt Q04759); experiment: Navigating the Kinome. Panel member name: PRKCQ; type: functional
[19] = biological target: Tyrosine-protein kinase JAK2 (Homo sapiens, UniProt O60674); type: functional;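 note: JAK2 tested as one member of a kinase panel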
[20] = biological target: Tyrosine-protein kinase Fyn (Homo sapiens, UniProt P06241); type: functional
[21] = biological target: Tyrosine-protein kinase ABL1 (Homo sapiens, UniProt P00519); type: functional
[22] = biological target: Cyclin-dependent kinase 8 (Homo sapiens, UniProt P49336); experiment: Navigating the Kinome. Panel member name: CDK8; type: functional
[23] = biological target: Dual specificity mitogen-activated protein kinase kinase 2 (Homo sapiens, UniProt P36507); experiment: Navigating the Kinome. Panel member name: MAP2K2; type: functional
[24] = biological target: Cyclin-dependent kinase 9 (Homo sapiens, UniProt P50750); type: functional;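 note: value from the CDK9 entry of a kinome-spanning kinase panel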
[25] = biological target: Macrophage colony-stimulating factor 1 receptor (Homo sapiens, UniProt P07333); type: functional;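 note: value comes from the Navigating the Kinome screening panel, CSF1R member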
[26] = biological target: Glycogen synthase kinase-3 alpha (Homo sapiens, UniProt P49840); type: functional;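 note: GSK3A result taken from a broad kinome-wide kinase panel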
[27] = biological target: Leukocyte tyrosine kinase receptor (Homo sapiens, UniProt P29376); experiment: Navigating the Kinome. Panel member name: LTK; type: functional

Dual specificity mitogen-activated protein kinase kinase 2, sequence (P36507 whole entry): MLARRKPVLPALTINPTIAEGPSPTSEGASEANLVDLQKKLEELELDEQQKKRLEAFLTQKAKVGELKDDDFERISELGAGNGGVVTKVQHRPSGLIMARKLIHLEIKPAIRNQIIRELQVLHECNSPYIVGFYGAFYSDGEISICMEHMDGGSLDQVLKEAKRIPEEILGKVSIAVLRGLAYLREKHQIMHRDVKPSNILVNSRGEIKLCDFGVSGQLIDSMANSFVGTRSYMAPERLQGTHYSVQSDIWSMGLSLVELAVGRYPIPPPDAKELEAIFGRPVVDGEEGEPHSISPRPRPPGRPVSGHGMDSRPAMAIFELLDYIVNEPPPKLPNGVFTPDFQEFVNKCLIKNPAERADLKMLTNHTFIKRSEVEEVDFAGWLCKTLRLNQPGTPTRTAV
Tyrosine-protein kinase ABL1, sequence (P00519 whole entry): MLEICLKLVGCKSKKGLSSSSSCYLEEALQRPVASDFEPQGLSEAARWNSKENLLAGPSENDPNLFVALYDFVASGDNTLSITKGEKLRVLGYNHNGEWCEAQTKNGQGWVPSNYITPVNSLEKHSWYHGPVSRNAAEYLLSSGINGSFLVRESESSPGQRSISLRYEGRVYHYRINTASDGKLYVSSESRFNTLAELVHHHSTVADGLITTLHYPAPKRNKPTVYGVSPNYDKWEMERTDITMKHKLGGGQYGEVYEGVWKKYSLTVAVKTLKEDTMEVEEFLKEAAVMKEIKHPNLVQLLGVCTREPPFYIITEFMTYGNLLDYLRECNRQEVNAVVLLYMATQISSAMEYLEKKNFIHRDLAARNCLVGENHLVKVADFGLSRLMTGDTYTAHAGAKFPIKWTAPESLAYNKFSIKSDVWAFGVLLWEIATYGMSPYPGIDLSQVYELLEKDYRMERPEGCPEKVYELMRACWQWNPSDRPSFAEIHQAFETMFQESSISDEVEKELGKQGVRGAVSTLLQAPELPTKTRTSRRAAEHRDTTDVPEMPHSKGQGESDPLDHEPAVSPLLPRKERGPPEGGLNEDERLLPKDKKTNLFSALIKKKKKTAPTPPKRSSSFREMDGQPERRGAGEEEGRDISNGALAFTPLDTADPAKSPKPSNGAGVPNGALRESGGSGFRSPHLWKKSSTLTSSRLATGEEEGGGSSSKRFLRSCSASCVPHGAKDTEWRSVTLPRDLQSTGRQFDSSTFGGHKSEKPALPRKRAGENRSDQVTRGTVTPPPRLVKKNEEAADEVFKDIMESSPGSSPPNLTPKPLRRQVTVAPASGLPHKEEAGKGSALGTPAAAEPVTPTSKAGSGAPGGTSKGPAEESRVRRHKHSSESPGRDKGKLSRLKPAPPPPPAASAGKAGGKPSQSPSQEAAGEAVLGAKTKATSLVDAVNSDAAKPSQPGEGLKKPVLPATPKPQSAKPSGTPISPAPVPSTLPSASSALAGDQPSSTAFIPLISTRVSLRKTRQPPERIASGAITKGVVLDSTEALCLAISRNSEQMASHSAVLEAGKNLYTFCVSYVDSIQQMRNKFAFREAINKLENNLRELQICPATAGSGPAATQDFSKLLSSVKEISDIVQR
Glycogen synthase kinase-3 beta, sequence (P49841 whole entry): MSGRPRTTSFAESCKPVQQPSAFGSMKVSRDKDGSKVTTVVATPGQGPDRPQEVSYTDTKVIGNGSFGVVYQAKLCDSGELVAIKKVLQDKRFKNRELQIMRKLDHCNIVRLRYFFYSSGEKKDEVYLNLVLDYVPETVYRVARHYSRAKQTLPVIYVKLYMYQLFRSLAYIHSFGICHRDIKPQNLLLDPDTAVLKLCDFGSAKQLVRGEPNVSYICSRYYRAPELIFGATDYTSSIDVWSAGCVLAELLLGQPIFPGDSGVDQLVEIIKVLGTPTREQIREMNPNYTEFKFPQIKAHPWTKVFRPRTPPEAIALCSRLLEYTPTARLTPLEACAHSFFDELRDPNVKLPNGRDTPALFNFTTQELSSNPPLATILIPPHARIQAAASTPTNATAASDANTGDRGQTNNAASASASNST
ATP-dependent molecular chaperone HSP82, sequence (C4YTQ8 whole entry): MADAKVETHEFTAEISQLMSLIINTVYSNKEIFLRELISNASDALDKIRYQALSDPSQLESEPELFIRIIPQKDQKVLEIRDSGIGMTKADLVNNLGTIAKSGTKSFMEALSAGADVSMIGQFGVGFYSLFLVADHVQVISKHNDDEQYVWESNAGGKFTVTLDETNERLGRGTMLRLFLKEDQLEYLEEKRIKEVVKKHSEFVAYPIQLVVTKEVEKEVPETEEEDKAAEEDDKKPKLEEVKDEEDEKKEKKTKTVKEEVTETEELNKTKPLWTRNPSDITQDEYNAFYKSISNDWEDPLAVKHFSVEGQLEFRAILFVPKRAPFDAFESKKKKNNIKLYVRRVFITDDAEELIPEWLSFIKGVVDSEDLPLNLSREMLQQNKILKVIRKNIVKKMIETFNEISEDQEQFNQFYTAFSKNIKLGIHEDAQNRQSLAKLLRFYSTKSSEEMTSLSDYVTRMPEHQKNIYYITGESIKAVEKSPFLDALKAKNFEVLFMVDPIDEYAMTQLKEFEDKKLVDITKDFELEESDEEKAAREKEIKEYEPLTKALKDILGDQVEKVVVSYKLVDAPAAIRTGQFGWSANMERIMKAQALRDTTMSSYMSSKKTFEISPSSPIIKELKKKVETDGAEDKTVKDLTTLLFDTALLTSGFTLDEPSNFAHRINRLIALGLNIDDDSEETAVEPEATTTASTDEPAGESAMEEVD
Tyrosine-protein kinase JAK2, sequence (O60674 whole entry): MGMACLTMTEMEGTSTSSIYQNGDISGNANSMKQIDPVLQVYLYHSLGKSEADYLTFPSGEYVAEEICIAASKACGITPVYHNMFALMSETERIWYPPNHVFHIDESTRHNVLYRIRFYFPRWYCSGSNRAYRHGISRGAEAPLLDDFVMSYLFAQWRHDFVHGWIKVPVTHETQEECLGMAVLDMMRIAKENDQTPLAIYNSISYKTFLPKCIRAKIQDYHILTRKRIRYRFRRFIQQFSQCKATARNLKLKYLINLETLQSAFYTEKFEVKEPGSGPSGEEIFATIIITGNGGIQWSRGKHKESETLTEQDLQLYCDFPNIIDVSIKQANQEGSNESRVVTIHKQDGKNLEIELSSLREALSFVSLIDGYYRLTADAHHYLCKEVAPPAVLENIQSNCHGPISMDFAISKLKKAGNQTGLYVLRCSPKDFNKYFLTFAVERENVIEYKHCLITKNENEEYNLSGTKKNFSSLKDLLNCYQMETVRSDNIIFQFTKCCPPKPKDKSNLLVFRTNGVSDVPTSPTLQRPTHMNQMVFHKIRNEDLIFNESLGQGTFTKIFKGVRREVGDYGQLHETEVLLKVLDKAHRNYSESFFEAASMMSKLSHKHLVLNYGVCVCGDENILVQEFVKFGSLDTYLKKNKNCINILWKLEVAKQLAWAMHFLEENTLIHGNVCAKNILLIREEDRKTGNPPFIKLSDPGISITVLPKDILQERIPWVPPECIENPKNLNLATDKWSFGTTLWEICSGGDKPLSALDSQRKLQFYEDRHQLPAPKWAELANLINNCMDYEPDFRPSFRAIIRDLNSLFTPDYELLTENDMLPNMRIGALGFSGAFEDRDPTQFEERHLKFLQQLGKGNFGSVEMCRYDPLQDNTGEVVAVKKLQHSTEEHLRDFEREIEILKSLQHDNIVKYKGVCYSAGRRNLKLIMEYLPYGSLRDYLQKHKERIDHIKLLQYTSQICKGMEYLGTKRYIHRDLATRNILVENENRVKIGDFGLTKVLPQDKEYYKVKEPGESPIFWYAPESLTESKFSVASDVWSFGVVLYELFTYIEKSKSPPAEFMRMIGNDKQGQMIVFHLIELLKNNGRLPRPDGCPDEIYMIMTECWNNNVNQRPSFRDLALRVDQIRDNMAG
Ribosomal protein S6 kinase alpha-3, sequence (P51812 whole entry): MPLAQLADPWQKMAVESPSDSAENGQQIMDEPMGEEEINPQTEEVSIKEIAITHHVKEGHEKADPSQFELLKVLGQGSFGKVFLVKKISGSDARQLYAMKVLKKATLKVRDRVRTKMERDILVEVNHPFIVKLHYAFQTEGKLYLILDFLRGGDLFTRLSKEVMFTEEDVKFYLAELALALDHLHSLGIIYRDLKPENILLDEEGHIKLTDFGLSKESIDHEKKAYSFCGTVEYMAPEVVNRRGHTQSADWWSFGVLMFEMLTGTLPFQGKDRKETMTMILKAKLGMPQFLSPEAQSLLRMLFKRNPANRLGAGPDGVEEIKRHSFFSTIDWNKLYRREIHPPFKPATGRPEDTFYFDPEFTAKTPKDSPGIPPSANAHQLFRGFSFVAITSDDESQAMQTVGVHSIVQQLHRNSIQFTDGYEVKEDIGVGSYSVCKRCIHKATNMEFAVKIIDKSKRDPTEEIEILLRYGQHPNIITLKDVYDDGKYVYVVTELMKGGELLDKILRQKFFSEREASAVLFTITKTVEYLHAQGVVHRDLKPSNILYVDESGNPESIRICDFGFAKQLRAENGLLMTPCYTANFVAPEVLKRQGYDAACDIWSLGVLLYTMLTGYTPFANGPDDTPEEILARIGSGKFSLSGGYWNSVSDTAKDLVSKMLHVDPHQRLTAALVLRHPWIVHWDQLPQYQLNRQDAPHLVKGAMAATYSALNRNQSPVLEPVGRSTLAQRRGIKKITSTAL
Tyrosine-protein kinase Fyn, sequence (P06241 whole entry): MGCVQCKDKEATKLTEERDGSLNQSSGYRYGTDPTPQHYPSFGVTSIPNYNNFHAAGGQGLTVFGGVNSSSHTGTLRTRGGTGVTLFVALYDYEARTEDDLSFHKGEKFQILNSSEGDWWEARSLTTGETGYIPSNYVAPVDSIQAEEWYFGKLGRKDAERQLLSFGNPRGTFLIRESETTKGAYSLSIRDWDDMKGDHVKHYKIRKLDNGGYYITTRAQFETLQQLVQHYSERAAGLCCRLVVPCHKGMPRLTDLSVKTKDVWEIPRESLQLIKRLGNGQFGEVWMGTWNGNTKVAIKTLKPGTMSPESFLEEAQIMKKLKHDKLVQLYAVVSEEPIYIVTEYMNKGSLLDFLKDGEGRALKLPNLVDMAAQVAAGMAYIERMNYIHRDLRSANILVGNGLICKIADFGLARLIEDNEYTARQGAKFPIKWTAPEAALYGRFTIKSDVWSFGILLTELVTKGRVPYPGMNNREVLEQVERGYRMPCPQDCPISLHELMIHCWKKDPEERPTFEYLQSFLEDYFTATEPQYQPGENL

CN1CCN(C(c2ccc(C(F)(F)F)cc2)c2cc(Cl)c3cccnc3c2O)CC1 (centres undefined)
inactive: IC50 (Exodeoxyribonuclease V) > 119 µM
active: EC50 [1] 0.666 µM | EC50 [3] 0.558 µM | EC50 [4] 6.72 µM | EC50 [5] 10.5 µM | AC50 (INS1) 3.18 µM | EC50 [6] 9.3 µM
inconclusive: EC50 [2] 10.9 µM

NC(=O)c1c(NC(=O)c2cc3ccccc3o2)sc2c1CCC2
active: IC50 [7] 17.2 µM

O=C(NC(CCO)c1ccccc1)c1ccc(-c2ccncc2)cc1 (centres undefined)
active: Ki [8] 1.26 µM | Ki [18] 1.58 µM | Ki [22] 2.51 µM | Ki [26] 1.26 µM
inactive: Ki [9] > 3.98 µM | Ki [10] > 2.51 µM | Ki [11] > 2.51 µM | Ki [12] > 3.16 µM | Ki [13] > 3.98 µM | Ki [14] > 3.16 µM | Ki [15] > 3.16 µM | Ki [16] > 3.98 µM | Ki [17] > 3.16 µM | Ki [19] > 2.51 µM | Ki [20] > 6.31 µM | Ki [21] > 3.98 µM | Ki [23] > 3.98 µM | Ki [24] > 1.58 µM | Ki [25] > 2.51 µM | Ki [27] > 2.51 µM
